Results as given in US12495818B2, “Dihydrochalcones from Balanophora harlandii” (The Coca-Cola Company, priority 2018, dated 2025).

Test system: panelists
Assay: Sweetness enhancement taste panel (Example 2)
Assay type: in vivo, human
Conditions: 20 ppm CC-00474 + 250 ppm Rebaudioside M in acidic water (citric acid) vs control of 250 ppm Rebaudioside M and PG; served cold, sip and spit; all panelists agreed
Procedure: Samples were prepared with the following ingredients:
CC-00474 in PG was prepared in weighing boat and added to Reb M solution while stirring. The weighing boat was rinsed with Reb M solution. The solution was stirred visibly clear and the sample was poured into a glass bottle and stored at 4° C.
Bottles were removed from the refrigerator and about 25 ml of beverage was poured into 4 oz-plastic cups. Panelists were given mineral water to rinse their mouth before tasting and between tasting different samples. Unsalted crackers were also given to panelist to eat followed by rinsing their mouth with mineral water before tasting the next sample.
A sample of Rebaudioside M in acidic water and a sample of CC-00474 and Rebaudioside M in acidic water were given to panelists. Panelists were asked to evaluate the sweetness of samples and describe the difference of taste profile. Panelists were instructed to sip, evaluate the sweetness, and then spit the samples in cups provided for that purpose.

COc1cc(CCC(=O)c2c(O)cc(O[C@@H]3OC(CO)[C@@H](O)[C@H](O)C3O)cc2O)ccc1O (stereo partly drawn) [CC-00474, 3-methoxyphloretin-4′-O-β-D-glucoside]
sweetness of the sample compared with Rebaudioside M only: sweeter than the sample containing Rebaudioside M only
